Measurements reported in patent publication US8791158B2, “Methods of treating meibomian gland dysfunction” (GTX, Inc., priority 2010, dated 2014).

How the values were obtained:
[1] = test system: Meibomian gland secretions of rabbits; conditions: cited from earlier work
[2] = test system: acute, orchiectomized (ORX) rabbit model; test: Tear fatty acid composition (palmitate:stearate ratio) after Compound 2 or TP, Example 3; type: in vivo; conditions: ORX rabbits
Text: The goal of this study was to compare the effect of Compound 2 to testosterone propionate (TP) on tear composition in an acute, orchiectomized (ORX) rabbit model.
Fifteen New Zealand white rabbits weighing approximately 3 lbs were allowed to acclimate for 4 weeks before the start of the study. Animals were weighed on day 0 of the study, randomized according to body weight and allotted to the following dose groups:
Pre-dose tear and blood samples were collected. Animals from groups 2-5 were to premedicated with glycopyrrolate (0.02 mg/kg) and then anesthesia was induced with a combination of ketamine (15 mg/kg): medetomidine (0.25 mg/kg).
Anesthesia was maintained with isoflurane (1 liter/hr). Orchiectomy was performed using a scrotal incision. Animals were revived from anesthesia using atipamezole (1 mg/kg) SQ. Analgesia was provided with buprenorphine (0.05 mg/kg) Immediately after the animals had recovered from anesthesia, they received their first dose with the appropriate test articles as indicated above.
Drug dosing was done once daily for 14 days. Blood was collected at 60 minutes post administration of the last dose of drug and plasma separated for HPLC analysis of parent drug concentrations.
Tears were collected using Schirmer tear strips (Alcon, Tex.) on day 0 before surgery, 24 hours after the last administration of drug (day 15) and also at 42 days (6 weeks after start of study). The tears were stored at −80° C. prior to lipid analysis.
Lipids were hydrolyzed, extracted from the Schirmer strips, derivatized, and subjected to gas chromatography with flame ionization detector (GCFID) to evaluate the lipid composition.
The samples were evaluated for the presence of 28 saturated and unsaturated fatty acids that included methyl caprate (C10:0), methyl laurate (C12:0), methyl 11-dodecenoate (C12:1), methyl myristate (C14:0), methyl myristoleate (C14:1), methyl palmitate (C16:0), methyl palmitoleate (C16:1), methyl stearate (C18:0), methyl oleate (C18:1), methyl vaccenate (C18:1), methyl linoleate (C18:2), methyl gamma linoleate (C18:3), methyl linoleate (C18:3), methyl arachidate (C20:0), methyl 11-eicosenoate (C20:1), methyl 11,14 eicosadinoate (C20:2), methyl 8,11,14 eicosatrienoate (C20:3), methyl eicosapentaenoate (C20:5), methyl behenate (C22:0), methyl erucate (C22:1), methyl 13,16 docosaenoate (C22:2), methyl docosatetraenoate (C22:4), methyl docosapentaenoate (C22:5), methyl docosahexaenoate (C22:6), methyl lignocerate (C24:0), and methyl nervonate (C24:1).
The area under the curve for each individual peak was determined using GC ChemStation software. […] These samples were then washed with a saturated solution of NaCl+0.1% formic acid (FA). […] These samples were all in the predose tear group. Two more samples from the predose group and one sample from Vehicle Intact treated group had small but clear and well to separated peaks that were included in the analysis.
To normalize for the tear content, the lipid composition was expressed as a ratio of the lipid that was most affected by castration (palmitate) to one which remained relatively constant (stearate). Blood was also collected on day 15 (24 hours after last drug administration) of the study, plasma separated and analyzed for Compound 2.
The last dose of drug or vehicle was administered on day 15 of the study Animals were left untreated for 4 weeks (washout period) before tear samples were collected again on Schirmer tear strips and analyzed as indicated above.

Row | SMILES | Effect on fatty acid profile in total and neutral lipid fractions of Meibomian gland secretions [1] | Increase of tear palmitate:stearate ratio relative to intact animals ([2]; 2.5 mg/kg, 14 days) | Tear palmitate:stearate ratio after 4 week washout ([2]; SQ 2.5 mg/kg for two weeks, then untreated 4 weeks)
1 | C[C@]12CC[C@H]3[C@@H](CCC4=CC(=O)CC[C@@H]43)[C@@H]1CC[C@@H]2O [19-nortestosterone] | modulated the fatty acid profile |  | 
2 | CCC(=O)O[C@H]1CC[C@H]2[C@@H]3CCC4=CC(=O)CC[C@]4(C)[C@H]3CC[C@]12C [TP, testosterone propionate, reference compound] |  | two times that of intact animals | 1.67±0.17
